Measured values: PubChem BioAssay AID2060904 (Molecular Pharmacology Branch, DTP, NCI, 2025)

Tested on: 349418-098-R-PDC complex spheroid viability
Assay: Anticancer human tumor 349418-098-R-PDC patient-derived lung adenocarcinoma cell line growth inhibition [RAS]
Conditions: for IC50: curve of first compound; for viability, T/C: stronger effect = lower value
How it was run: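 Multi-cell-type spheroids: tumor cells plus HUVEC endothelial cells and mesenchymal stem cells. RAS-pathway inhibitors were combined with targeted agents, each dosed in half-log steps down from clinical Cmax, or from 10 microM when Cmax was unknown.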
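Note: spheroids exposed to compound for seven days before viability readout.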

SMILES: CC(=O)OC12COC1CC(O)C1(C)C(=O)C(O)C3=C(C)C(OC(=O)C(O)C(NC(=O)OC(C)(C)C)c4ccccc4)CC(O)(C(OC(=O)c4ccccc4)C21)C3(C)C (centres undefined) + CCn1c(-c2cccnc2C(C)OC)c2c3cc(ccc31)N1CCOC(CC(NC(=O)C(C(C)C)N(C)C(=O)C3(F)CCN(C(=O)C#CC(C)(C)N(C)C)CC3)C(=O)N3CCCC(N3)C(=O)OCC(C)(C)C2)C1
- IC50 (second compound 0.000949 µM): < 31.6 nM
- IC50 (second compound 0.003 µM): < 31.6 nM
- IC50 (second compound 0.00949 µM): < 31.6 nM
- IC50 (second compound 0.03 µM): < 31.6 nM
- IC50 (second compound 0.0949 µM): < 31.6 nM
- IC50 (second compound 0.3 µM): < 31.6 nM
- viability, T/C (second compound 0.000949 µM, first compound 0.0316 µM): 13.4%
- viability, T/C (second compound 0.000949 µM, first compound 0.1 µM): 13%
- viability, T/C (second compound 0.000949 µM, first compound 0.316 µM): 15.4%
- viability, T/C (second compound 0.000949 µM, first compound 1 µM): 16.4%
- viability, T/C (second compound 0.000949 µM, first compound 3.16 µM): 15.6%
- viability, T/C (second compound 0.000949 µM, first compound 10 µM): 17.3%
- viability, T/C (second compound 0.003 µM, first compound 0.0316 µM): 13.8%
- viability, T/C (second compound 0.003 µM, first compound 0.1 µM): 13.9%
- viability, T/C (second compound 0.003 µM, first compound 0.316 µM): 10.9%
- viability, T/C (second compound 0.003 µM, first compound 1 µM): 13.8%
- viability, T/C (second compound 0.003 µM, first compound 3.16 µM): 16.8%
- viability, T/C (second compound 0.003 µM, first compound 10 µM): 16.9%
- viability, T/C (second compound 0.00949 µM, first compound 0.0316 µM): 13.2%
- viability, T/C (second compound 0.00949 µM, first compound 0.1 µM): 13.6%
- viability, T/C (second compound 0.00949 µM, first compound 0.316 µM): 10.2%
- viability, T/C (second compound 0.00949 µM, first compound 1 µM): 13.5%
- viability, T/C (second compound 0.00949 µM, first compound 3.16 µM): 17.4%
- viability, T/C (second compound 0.00949 µM, first compound 10 µM): 15.9%
- viability, T/C (second compound 0.03 µM, first compound 0.0316 µM): 12.6%
- viability, T/C (second compound 0.03 µM, first compound 0.1 µM): 13.3%
- viability, T/C (second compound 0.03 µM, first compound 0.316 µM): 16.2%
- viability, T/C (second compound 0.03 µM, first compound 1 µM): 16.2%
- viability, T/C (second compound 0.03 µM, first compound 3.16 µM): 17.4%
- viability, T/C (second compound 0.03 µM, first compound 10 µM): 12.6%
- viability, T/C (second compound 0.0949 µM, first compound 0.0316 µM): 12.2%
- viability, T/C (second compound 0.0949 µM, first compound 0.1 µM): 13.3%
- viability, T/C (second compound 0.0949 µM, first compound 0.316 µM): 15.7%
- viability, T/C (second compound 0.0949 µM, first compound 1 µM): 15.9%
- viability, T/C (second compound 0.0949 µM, first compound 3.16 µM): 16.9%
- viability, T/C (second compound 0.0949 µM, first compound 10 µM): 16.8%
- viability, T/C (second compound 0.3 µM, first compound 0.0316 µM): 13%
- viability, T/C (second compound 0.3 µM, first compound 0.1 µM): 13.2%
- viability, T/C (second compound 0.3 µM, first compound 0.316 µM): 14.7%
- viability, T/C (second compound 0.3 µM, first compound 1 µM): 15%
- viability, T/C (second compound 0.3 µM, first compound 3.16 µM): 19.1%
- viability, T/C (second compound 0.3 µM, first compound 10 µM): 21.1%

SMILES: CCc1c2c(nc3ccc(O)cc13)-c1cc3c(c(=O)n1C2)COC(=O)[C@]3(O)CC + CCn1c(-c2cccnc2C(C)OC)c2c3cc(ccc31)N1CCOC(CC(NC(=O)C(C(C)C)N(C)C(=O)C3(F)CCN(C(=O)C#CC(C)(C)N(C)C)CC3)C(=O)N3CCCC(N3)C(=O)OCC(C)(C)C2)C1
- IC50 (second compound 0.000949 µM): 2.21 nM
- IC50 (second compound 0.003 µM): 2.57 nM
- IC50 (second compound 0.00949 µM): 2.86 nM
- IC50 (second compound 0.03 µM): 2.62 nM
- IC50 (second compound 0.0949 µM): 2.42 nM
- IC50 (second compound 0.3 µM): 1.43 nM
- viability, T/C (second compound 0.000949 µM, first compound 0.000949 µM): 77.2%
- viability, T/C (second compound 0.000949 µM, first compound 0.003 µM): 40.1%
- viability, T/C (second compound 0.000949 µM, first compound 0.00949 µM): 10.9%
- viability, T/C (second compound 0.000949 µM, first compound 0.03 µM): 4.7%
- viability, T/C (second compound 0.000949 µM, first compound 0.0949 µM): 2.54%
- viability, T/C (second compound 0.000949 µM, first compound 0.3 µM): 2.43%
- viability, T/C (second compound 0.003 µM, first compound 0.000949 µM): 99.5%
- viability, T/C (second compound 0.003 µM, first compound 0.003 µM): 42.5%
- viability, T/C (second compound 0.003 µM, first compound 0.00949 µM): 13.3%
- viability, T/C (second compound 0.003 µM, first compound 0.03 µM): 6.22%
- viability, T/C (second compound 0.003 µM, first compound 0.0949 µM): 2.99%
- viability, T/C (second compound 0.003 µM, first compound 0.3 µM): 2.08%
- viability, T/C (second compound 0.00949 µM, first compound 0.000949 µM): 98.7%
- viability, T/C (second compound 0.00949 µM, first compound 0.003 µM): 47.9%
- viability, T/C (second compound 0.00949 µM, first compound 0.00949 µM): 15.6%
- viability, T/C (second compound 0.00949 µM, first compound 0.03 µM): 5.26%
- viability, T/C (second compound 0.00949 µM, first compound 0.0949 µM): 2.91%
- viability, T/C (second compound 0.00949 µM, first compound 0.3 µM): 2.15%
- viability, T/C (second compound 0.03 µM, first compound 0.000949 µM): 86.4%
- viability, T/C (second compound 0.03 µM, first compound 0.003 µM): 45.1%
- viability, T/C (second compound 0.03 µM, first compound 0.00949 µM): 14.1%
- viability, T/C (second compound 0.03 µM, first compound 0.03 µM): 5.2%
- viability, T/C (second compound 0.03 µM, first compound 0.0949 µM): 2.57%
- viability, T/C (second compound 0.03 µM, first compound 0.3 µM): 2.19%
- viability, T/C (second compound 0.0949 µM, first compound 0.000949 µM): 94.7%
- viability, T/C (second compound 0.0949 µM, first compound 0.003 µM): 39.9%
- viability, T/C (second compound 0.0949 µM, first compound 0.00949 µM): 11.3%
- viability, T/C (second compound 0.0949 µM, first compound 0.03 µM): 5.33%
- viability, T/C (second compound 0.0949 µM, first compound 0.0949 µM): 2.49%
- viability, T/C (second compound 0.0949 µM, first compound 0.3 µM): 1.47%
- viability, T/C (second compound 0.3 µM, first compound 0.000949 µM): 65.3%
- viability, T/C (second compound 0.3 µM, first compound 0.003 µM): 22.4%
- viability, T/C (second compound 0.3 µM, first compound 0.00949 µM): 7.03%
- viability, T/C (second compound 0.3 µM, first compound 0.03 µM): 4.31%
- viability, T/C (second compound 0.3 µM, first compound 0.0949 µM): 2.68%
- viability, T/C (second compound 0.3 µM, first compound 0.3 µM): 1.47%
